Tests used:
[1] = biological target: T1, cloned human 5-HT1A-receptors (Homo sapiens, UniProt P08908); assay: Inhibition of 3H-5-CT binding to human 5-HT1A receptors; settings: transfected HeLa cells (HA7), 15 minutes at 37° C., pH 7.7
T1 construct: expressed in transfected cells; host or cells: HeLa cells (HA7)
T1 sequence (P08908 1-422): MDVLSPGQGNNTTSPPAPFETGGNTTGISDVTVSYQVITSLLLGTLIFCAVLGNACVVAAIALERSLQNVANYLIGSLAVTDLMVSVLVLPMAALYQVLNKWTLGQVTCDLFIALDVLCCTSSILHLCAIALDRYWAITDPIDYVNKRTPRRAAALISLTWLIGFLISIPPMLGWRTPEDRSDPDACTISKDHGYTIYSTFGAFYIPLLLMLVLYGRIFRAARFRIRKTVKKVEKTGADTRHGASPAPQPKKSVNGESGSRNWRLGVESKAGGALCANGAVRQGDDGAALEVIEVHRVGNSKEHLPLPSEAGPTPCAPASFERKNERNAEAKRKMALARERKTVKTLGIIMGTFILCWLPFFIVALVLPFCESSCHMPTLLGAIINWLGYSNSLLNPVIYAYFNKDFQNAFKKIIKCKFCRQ
Procedure: The affinity of the compounds of the invention to 5-HT1A receptors was determined by measuring the inhibition of binding of a radioactive ligand at 5-HT1A-receptors as described in the following test:
Inhibition of ^3H-5-CT Binding to Human 5-HT1A Receptors.
By this method, the inhibition by drugs of the binding of the 5-HT1A-agonist ^3H-5-carboxamido tryptamine (^3H-5-CT) to cloned human 5-HT1A-receptors stably expressed in transfected HeLa cells (HA7) (Fargin, A. et al. J. Biol. Chem. 1989, 264, 14848) is determined in vitro. The assay was performed as a modification of the method described by Harrington, M. A. et al. J. Pharmacol. Exp. Ther. 1994, 268, 1098. Human 5-HT1A-receptors (40 μg of cell homogenate) were incubated for 15 minutes at 37° C. in 50 mM Tris buffer at pH 7.7 in the presence of ^3H-5-CT. Non-specific binding was determined by including 10 μM of metergoline. The reaction was terminated by rapid filtration through Unifilter GF/B filters on a Tomtec Cell Harvester. Filters were counted in a Packard Top Counter.

[2] = biological target: T2, human cloned dopamine D4.2-receptors (Homo sapiens, UniProt P21917, DEL265-296); assay: Inhibition of the binding of 3H-YM-09151-2 to human dopamine D4 receptors; settings: [3H]YM-09151-2 0.06 nM; for IC50: membranes of CHO-cells expressing human D4.2
T2 construct: expressed in transfected cells; host or cells: CHO cells
T2 sequence (P21917 with tags, fused parts or gaps DEL265-296): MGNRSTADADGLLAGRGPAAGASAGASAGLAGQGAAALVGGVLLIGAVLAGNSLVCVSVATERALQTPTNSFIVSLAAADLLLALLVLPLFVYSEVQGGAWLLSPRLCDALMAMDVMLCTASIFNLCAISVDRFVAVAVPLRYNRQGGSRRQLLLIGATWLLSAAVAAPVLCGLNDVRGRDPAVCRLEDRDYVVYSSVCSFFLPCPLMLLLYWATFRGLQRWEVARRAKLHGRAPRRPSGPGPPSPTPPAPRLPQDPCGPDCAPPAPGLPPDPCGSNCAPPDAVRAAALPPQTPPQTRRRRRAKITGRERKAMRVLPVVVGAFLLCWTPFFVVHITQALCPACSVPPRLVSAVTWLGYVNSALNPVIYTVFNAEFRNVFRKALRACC
Procedure: Inhibition of the Binding of ^3H-YM-09151-2 to Human Dopamine D4 Receptors
By this method, the inhibition by drugs of the binding of [^3H]YM-09151-2 (0.06 nM) to membranes of human cloned dopamine D4.2-receptors expressed in CHO-cells is determined in vitro. Method modified from NEN Life Science Products, Inc., technical data certificate PC2533-10/96.

[3] = at 100 nM, CHO-cell membranes, human D4.2

Row | Compound | IC50 [1] [nM] | IC50 [2] [nM] | inhibition at 0.05 µM ([1]; at 50 nM) [%] | inhibition at 0.1 µM [2, 3] [%] | also measured
1 | Fc1cc(Cl)c(OCCCN2CCN(c3cccc4[nH]ccc34)CC2)c(Cl)c1 [Compound 4i, 4-{4-[3-(2,6-Dichloro-4-fluoro-phenoxy)-propyl]-piperazin-1-yl}-1H-indole] | 1 | 16 | – | – | –
2 | Fc1cc(Cl)c(OCCCCN2CCN(c3cccc4[nH]ccc34)CC2)c(Cl)c1 [Compound 4g, 4-{4-[4-(2,6-Dichloro-4-fluoro-phenoxy)-butyl]-piperazin-1-yl}-1H-indole] | 2.4 | 4.9 | – | – | –
3 | CC(C)c1ccccc1SCCCCN1CCN(c2cccc3[nH]ccc23)CC1 [Compound 5bb, 4-{4-[4-(2-Isopropyl-phenylsulfanyl)-butyl]-piperazin-1-yl}-1H-indole] | – | – | 94 | 94 | –
4 | Clc1cccc(SCCCCN2CCN(c3cccc4[nH]ccc34)CC2)c1 [Compound 5aq, 4-{4-[4-(3-Chloro-phenylsulfanyl)-butyl]-piperazin-1-yl}-1H-indole] | – | – | 100 | 98 | –
5 | Cc1cccc(C)c1OCCN1CCN(c2cccc3[nH]ccc23)CC1 [Compound 5aa, 4-{4-[2-(2,6-Dimethyl-phenoxy)-ethyl]-piperazin-1-yl}-1H-indole] | – | – | 78 | 81 | –
6 | Brc1cc(Br)c(OCCCN2CCN(c3cccc4[nH]ccc34)CC2)c(Br)c1 [Compound 4l, 14-{4-[3-(2,4,6-Tribromo-phenoxy)-propyl]-piperazin-1-yl}-1H-indole] | 1.1 | 28 | – | – | –
7 | CCC(=O)c1cc(F)c(OCCCN2CCN(c3cccc4[nH]ccc34)CC2)c(F)c1 [Compound 4n, 1-(3,5-Difluoro-4-{3-[4-(1H-indol-4-yl)-piperazin-1-yl]-propoxy}-phenyl)-propan-1-one] | 0.72 | 230 | – | – | –
8 | Clc1ccccc1SCCCN1CCN(c2cccc3[nH]ccc23)CC1 [Compound 2a, 4-{4-[3-(2-Chloro-phenylsulfanyl)-propyl]-piperazin-1-yl}-1H-indole] | 2.4 | 1.1 | – | – | –
9 | C=CCc1cccc(Cl)c1OCCN1CCN(c2cccc3[nH]ccc23)CC1 [Compound 5ae, 4-{4-[2-(2-Allyl-6-chloro-phenoxy)-ethyl]-piperazin-1-yl}1H-indole] | – | – | 92 | 88 | –
10 | FC(F)(F)Oc1ccc(SCCCN2CCN(c3cccc4[nH]ccc34)CC2)cc1 [Compound 5ax, 4-{4-[3-(4-Trifluoromethoxy-phenylsulfanyl)-propyl]-piperazin-1-yl}-1H-indole] | – | – | 81 | 98 | –
11 | Fc1ccc(SCCN2CCN(c3cccc4[nH]ccc34)CC2)c(Cl)c1 [Compound 3a, 4-{4-[2-(2-Chloro-4-fluoro-phenylsulanyl)-ethyl]-piperazin-1-yl}-1H-indole] | 15 | 6.6 | – | – | –
12 | N#Cc1cc(Br)c(OCCCN2CCN(c3cccc4[nH]ccc34)CC2)c(Br)c1 [Compound 4o, 3,5-Dibromo-4-{3-[4-(1H-indol-4-yl)-piperazin-1-yl]-propoxy}-benzonitrile] | 0.72 | 32 | – | – | –
13 | FC(F)(F)c1ccc(SCCCN2CCN(c3cccc4[nH]ccc34)CC2)cc1 [Compound 5aw, 4-{4-[3-(4-Trifluoromethyl-phenylsulfanyl)-propyl]-piperazin-1-yl}-1H-indole] | – | – | 98 | 99 | –
14 | Clc1ccccc1SCCCCN1CCN(c2cccc3[nH]ccc23)CC1 [Compound 5ar, 4-{4-[4-(2-Chloro-phenylsulfanyl)-butyl]-piperazin-1-yl}-1H-indole] | – | – | 104 | 98 | –
15 | Fc1cc(Br)cc(F)c1OCCCCN1CCN(c2cccc3[nH]ccc23)CC1 [Compound 4j, 4-{4-[4-(4-Bromo-2,6-difluoro-phenoxy)-butyl]-piperazin-1-yl}-1H-indole] | 17 | 23 | – | – | –
16 | c1ccc(SCCCCN2CCN(c3cccc4[nH]ccc34)CC2)cc1 [Compound 5aj, 4-[4-(4-Phenylsulfanyl-butyl)-piperazin-1-yl]-1H-indole] | – | – | 77 | 100 | –
17 | Cc1ccc(SCCCN2CCN(c3cccc4[nH]ccc34)CC2)cc1C [Compound 5as, 4-{4-[3-(3,4-Dimethyl-phenylsulfanyl)-propyl]-piperazin-1-yl}-1H-indole] | – | – | 103 | 99 | –
18 | Fc1cc(Br)c(OCCCCN2CCN(c3cccc4[nH]ccc34)CC2)c(Br)c1 [Compound 4k, 4-{4-[4-(2,6-Dibromo-4-fluoro-phenoxy)-butyl]-piperazin-1-yl}-1H-indole] | 6.7 | 26 | – | – | –
19 | Fc1ccc(OCCCCN2CCN(c3cccc4[nH]ccc34)CC2)c(Br)c1 [Compound 4b, 4-{4-[4-(2-Bromo-4-fluoro-phenoxy)-butyl]-piperazin-1-yl}-1H-indole] | 2.4 | 0.66 | – | – | –
20 | N#Cc1cccc(OCCCCN2CCN(c3cccc4[nH]ccc34)CC2)c1 [Compound 5at, 3-{4-[4-(1H-Indol-4-yl)-piperazin-1-yl]-butoxy}-benzonitrile] | – | – | 92 | 95 | –
21 | Brc1ccccc1SCCCN1CCN(c2cccc3[nH]ccc23)CC1 [Compound 2b, 4-(4-[3-(2-Bromo-phenylsulfanyl)-propyl]-piperazin-1-yl}-1H-indole] | 2.7 | 1.2 | – | – | –
22 | Cc1cccc(Cl)c1SCCCCN1CCN(c2cccc3[nH]ccc23)CC1 [Compound 2e, 4-{4-[4-(2-Chloro-6-methyl-phenylsulfanyl)-butyl]-piperazin-1-yl}-1H-indole] | 4.5 | 2.2 | – | – | –
23 | Fc1ccc(OCCCN2CCN(c3cccc4[nH]ccc34)CC2)c(F)c1 [Compound 4c] | 5.4 | 1.6 | – | – | –
24 | FC(F)(F)c1ccccc1SCCCN1CCN(c2cccc3[nH]ccc23)CC1 [Compound 5af, 4-{4-[3-(2-Trifluoromethyl-phenylsulfanyl)-propyl]-piperazin-1-yl}-1H-indole] | – | 7.2 | 93 | – | –
25 | Fc1cc(F)c(OCCN2CCN(c3cccc4[nH]ccc34)CC2)c(Br)c1 [Compound 4p, 4-{4-[2-(2-Bromo-4,6-difluoro-phenoxy)-ethyl]-piperazin-1-yl}-1H-indole] | 36 | 13 | – | – | –
26 | N#Cc1ccc(OCCCCN2CCN(c3cccc4[nH]ccc34)CC2)c(Cl)c1 [Compound 5ap] | – | – | – | – | Inhibition of 3H-5-CT Binding % inhibition at 50 nM ([1]; at 50 nM): 100%; Inhibition of 3H-YM-09151 binding % inhibition at 100 nM [2, 3]: 106%
27 | Clc1cccc(SCCCN2CCN(c3cccc4[nH]ccc34)CC2)c1 [Compound 5ao, 4-{4-[3-(3-Chloro-phenylsulfanyl)-propyl]-piperazin-1-yl}-1H-indole] | – | – | 100 | 102 | –
28 | Clc1ccc(Cl)c(SCCN2CCN(c3cccc4[nH]ccc34)CC2)c1 [Compound 5al, 4-{4-[2-(2,5-Dichloro-phenylsulfanyl)-ethyl]-piperazin-1-yl}-1H-indole] | – | – | 92 | 96 | –
29 | CCc1ccccc1OCCCCN1CCN(c2cccc3[nH]ccc23)CC1 [Compound 5ai, 4-{4-[4-(2-Ethyl-phenoxy)-butyl]-piperazin-1-yl}-1H-indole] | – | – | 93 | 90 | –
30 | Cc1ccc(OCCCCN2CCN(c3cccc4[nH]ccc34)CC2)c(C)c1 [Compound 5ah, 4-{4-[4-(2,4-Dimethyl-phenoxy)-butyl]-piperazin-1-yl}-1H-indole] | – | – | 86 | 90 | –
